In patent US20230365563A1, “QUINAZOLINE COMPOUND AND APPLICATION THEREOF” (SHANGHAI PHARMACEUTICALS HOLDING CO., LTD., priority 2020, published 2023):
Where a name gives a salt, the structure may show the parent alone.

Molecular target: T1, KRAS-G12D and SOS1 (Homo sapiens, UniProt P01116, G12D)
T1 construct: purchased
Assay: Inhibition of KRAS-G12D/SOS1 binding (Cisbio binding kit, 665/615 ratio), Effect Embodiment A
Settings: read-out: GTP-KRAS-G12D:SOS1 IC50
Method: Similarly, the first dilution point of the compound to be tested was its storage solution, and the solution was 3-fold diluted, with 11+0 points of dilution. Echo was used to transfer 0.2 μL gradient diluted solution of the compounds into a 384-well plate, with 2 duplicated wells for each compound, and the final concentration of DMSO was 1%. The solution was centrifuged for 1 min at 1000 rpm/min.
IC50 of the compounds was fitted by Graphpad Prism 8 nonlinear regression equation: […]
The IC50 (half inhibitory concentration) of the compound was obtained by using the following nonlinear fitting formula: […]

T1 sequence (P01116 1-188 isoform P01116-2 G12D): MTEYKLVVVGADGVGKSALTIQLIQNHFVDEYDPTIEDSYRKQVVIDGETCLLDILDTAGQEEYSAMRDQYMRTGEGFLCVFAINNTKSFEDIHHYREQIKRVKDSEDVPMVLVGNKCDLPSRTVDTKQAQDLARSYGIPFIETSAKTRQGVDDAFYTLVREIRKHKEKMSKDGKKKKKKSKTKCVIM

**Q.** For Oc1cc(-c2c(Cl)cc3c(N4CC5CCC(C4)N5)nc(OCCCN4CCCCC4)nc3c2F)c2ccccc2c1 (single isomer, unassigned) [Compound 66b, 4-((R or S)-4-((1R,5S)-3,8-diazabicyclo[3.2.1]octan-3-yl)-6-chloro-8-fluoro-2-(3-(piperidin-1-yl)propoxy)quinazolin-7-yl)naphthalen-2-ol], which IC50 is on record?
**A.** 18 µM

**Q.** For CN(C)C1CN(c2nc(N=S3(=O)CCC(N)CC3)c3cc(Cl)c(-c4cc(O)cc5ccccc45)c(F)c3n2)C1 (single isomer, unassigned) [Compound 72a, (4R or S)-4-amino-1-(((R or S)-6-chloro-2-(3-(dimethylamino)azetidin-1-yl)-8-fluoro-7-(3-hydroxynaphthalen-1-yl)quinazolin-4-yl)imino)hexahydro-1-thiopyran 1-oxide], which IC50 is on record?
**A.** > 200 µM

**Q.** How did the IC50 turn out when CN(C)C1CN(c2nc(N=S3(=O)CCC(N)CC3)c3cc(Cl)c(-c4cc(O)cc5ccccc45)c(F)c3n2)C1 (single isomer, unassigned) [Compound 72b, (4R or S)-4-amino-1-(((S or R)-6-chloro-2-(3-(dimethylamino)azetidin-1-yl)-8-fluoro-7-(3-hydroxynaphthalen-1-yl)quinazolin-4-yl)imino)hexahydro-1-thiopyran 1-oxide] was run?
**A.** 155 µM

**Q.** CN(C)C1CN(c2nc(N=S3(=O)CCC(N)CC3)c3cc(Cl)c(-c4cc(O)cc5ccccc45)c(F)c3n2)C1 (single isomer, unassigned) [Compound 72c, (4S or R)-4-amino-1-(((R or S)-6-chloro-2-(3-(dimethylamino)azetidin-1-yl)-8-fluoro-7-(3-hydroxynaphthalen-1-yl)quinazolin-4-yl)imino)hexahydro-1-thiopyran 1-oxide] was tested. Which IC50 did it give?
**A.** > 200 µM

**Q.** Which IC50 does the source give for CN(C)C1CN(c2nc(N=S3(=O)CCC(N)CC3)c3cc(Cl)c(-c4cc(O)cc5ccccc45)c(F)c3n2)C1 (single isomer, unassigned) [Compound 72d, (4S or R)-4-amino-1-(((S or R)-6-chloro-2-(3-(dimethylamino)azetidin-1-yl)-8-fluoro-7-(3-hydroxynaphthalen-1-yl)quinazolin-4-yl)imino)hexahydro-1-thiopyran 1-oxide] here?
**A.** 176 µM

**Q.** With CN(C)CCCn1c(=O)nc(N2CC3CCC(C2)N3)c2cc(Cl)c(-c3cc(O)cc4ccccc34)c(F)c21 (single isomer, unassigned) [Compound 74a, 4-((1R,5S)-3,8-diazabicyclo[3.2.1]octan-3-yl)-6-chloro-1-(3-(dimethylamino)propyl)-8-fluoro-7-((S or R)-3-hydroxynaphthalen-1-yl)quinazolin-2(1H)-one] as the compound, how does the IC50 read?
**A.** 100 µM

**Q.** Which IC50 does the source give for CN(C)CCCn1c(=O)nc(N2CC3CCC(C2)N3)c2cc(Cl)c(-c3cc(O)cc4ccccc34)c(F)c21 (single isomer, unassigned) [Compound 74b, 4-((1R,5S)-3,8-diazabicyclo[3.2.1]octan-3-yl)-6-chloro-1-(3-(dimethylamino)propyl)-8-fluoro-7-((R or S)-3-hydroxynaphthalen-1-yl)quinazolin-2(1H)-one] here?
**A.** > 200 µM

**Q.** CN(C)C1CN(c2nc(NCC(=N)N)c3cc(Cl)c(-c4cc(O)cc5ccccc45)c(F)c3n2)C1 (single isomer, unassigned) [Compound 76, (S or R)-2-((6-chloro-2-(3-(dimethylamino)azetidin-1-yl)-8-fluoro-7-(3-hydroxynaphthalen-1-yl)quinazolin-4-yl)amino)acetimidamide diformate] was tested. Which IC50 did it give?
**A.** 8.96 µM

**Q.** CC(=O)NCCN(C)c1nc(N2CC(N(C)C)C2)nc2c(F)c(-c3cc(O)cc4ccccc34)c(Cl)cc12 (single isomer, unassigned) [Compound 84, (S or R)—N-(2-((6-chloro-2-(3-(dimethylamino)azetidin-1-yl)-8-fluoro-7-(3-hydroxynaphthalen-1-yl)quinazolin-4-yl)(methyl)amino)ethyl)acetamide] was tested. Which IC50 did it give?
**A.** 3.05 µM

**Q.** CN(C)C1CN(c2nc(N3CC4CCC(C3)N4C(=N)N)c3cc(Cl)c(-c4cc(O)cc5ccccc45)c(F)c3n2)C1 (single isomer, unassigned) [Compound 85, (1R,5S)-3-((S or R)-6-chloro-2-(3-(dimethylamino)azetidin-1-yl)-8-fluoro-7-(3-hydroxynaphthalen-1-yl)quinazolin-4-yl)-3,8-diazabicyclo[3.2.1]octane-8-carboximidamide diformate] was tested. Which IC50 did it give?
**A.** 4.79 µM

**Q.** CN(C)C1CN(c2nc(N3CC4CCC(C3)N4C)c3cc(Cl)c(-c4cc(O)cc5ccccc45)c(F)c3n2)C1 (single isomer, unassigned) [Compound 86, 4-((S or R)-6-chloro-2-(3-(dimethylamino)azetidin-1-yl)-8-fluoro-4-((1R,5S)-8-methyl)-3,8-diazabicyclo[3.2.1]octan-3-yl)quinazolin-7-yl)naphthalen-2-ol] was tested. Which IC50 did it give?
**A.** 3.57 µM

**Q.** How did the IC50 turn out when CC(=N)N1C2CCC1CN(c1nc(N3CC(N(C)C)C3)nc3c(F)c(-c4cc(O)cc5ccccc45)c(Cl)cc13)C2 (single isomer, unassigned) [Compound 87, 4-((S or R)-6-chloro-2-(3-(dimethylamino)azetidin-1-yl)-8-fluoro-4-((1R,5S)-8-(1-iminoethyl)-3,8-diazabicyclo[3.2.1]octan-3-yl)quinazolin-7-yl)naphthalen-2-ol trifluoroacetate] was run?
**A.** 23.3 µM

**Q.** CN1CCC[C@H]1COc1nc(N2CC3CCC(C2)N3)c2cc(Cl)c(-c3cc(O)c(F)c4ccccc34)c(F)c2n1 (single isomer, unassigned) [Compound 89b, (R or S)-4-(4-((1R,5S)-3,8-diazabicyclo[3.2.1]octan-3-yl)-6-chloro-8-fluoro-2-(S)-1-methylpyrrolidin-2-yl)methoxy)quinazolin-7-yl)-1-fluoronaphthalen-2-ol hydrochloride] was tested. Which IC50 did it give?
**A.** 5.34 µM

**Q.** For Cc1ccc2[nH]ncc2c1-c1c(Cl)cc2c(N3CC4CCC(C3)N4)nc(OC[C@@H]3CCCN3C)nc2c1F (single isomer, unassigned) [Compound 90a, 4-((1R,5S)-3,8-diazabicyclo[3.2.1]octan-3-yl)-6-chloro-8-fluoro-7-((R or S)-5-methyl-1H-indazol-4-yl)-2-((S)-1-methylpyrrolidin-2-yl)methoxy)quinazoline hydrochloride], which IC50 is on record?
**A.** 0.263 µM

**Q.** For C[C@H]1CCCN1CCCOc1nc(N2CC3CCC(C2)N3)c2cc(Cl)c(-c3cc(O)cc4ccccc34)c(F)c2n1 (single isomer, unassigned) [Compound 108b, 4-((S or R)-4-((1R,5S)-3,8-diazabicyclo[3.2.1]octan-3-yl)-6-chloro-8-fluoro-2-(3-((S)-2-methylpyrrolidin-1-yl)propoxy)quinazolin-7-yl)naphthalen-2-ol dihydrochloride], which IC50 is on record?
**A.** 0.108 µM

**Q.** Which IC50 does the source give for CN1CCC1CCOc1nc(N2CC3CCC(C2)N3)c2cc(Cl)c(-c3cc(O)cc4ccccc34)c(F)c2n1 (single isomer, unassigned) [Compound 112b, 4-((S or R)-4-((1R,5S)-3,8-diazabicyclo[3.2.1]octan-3-yl)-6-chloro-8-fluoro-2-(2-((R or S)-1-methylazetidin-2-yl)ethoxy)quinazolin-7-yl)naphthalen-2-ol carboxylate] here?
**A.** 0.12 µM

**Q.** Oc1cc(-c2c(Cl)cc3c(N4CC5CCC(C4)N5)nc(OCCN4CCOCC4)nc3c2F)c2ccccc2c1 (single isomer, unassigned) [Compound 121, 4-((S or R)-4-((1R,5S)-3,8-diazabicyclo[3.2.1]octan-3-yl)-6-chloro-8-fluoro-2-(2-(morpholinylethoxy)quinazolin-7-yl)naphthalen-2-oldihydrochloride] was tested. Which IC50 did it give?
**A.** 0.147 µM
